Patent publication US11584765B2 (priority 2017, dated 2023)
Structures can show the parent of a compound that is named as a salt.

Test system: C57BL/6 mice
Assay: animal or person
Format: in vivo
Details: Mus musculus, sc, 0.5 h, s.c. administration, 30 min, 55° C. water, read-out: ED50 (mg/kg) at 30 min on C57BL/6 mice in Warm-water Tail-flick Test

Structure (SMILES)	ED50
CCOC[C@@]1(CCc2ccc(F)cc2)CCN(C2(c3ccc(C)nc3)CC2)C1 [Compound 434, (S)-5-(1-(3-(ethoxymethyl)-3-(4-fluoro-phenethyl)pyrrolidin-1-yl)cyclopropyl)-2-methylpyridine]	< 10 mg/kg
CCOC[C@@]1(CCc2ccc(F)s2)CCN(C2(c3ccc(C)nc3)CC2)C1 [Compound 435]	< 10 mg/kg
CCOC[C@@]1(CCc2ccc(F)cc2)CCN(C2(c3cnc(C)cc3CC)CC2)C1 [Compound 436, (S)-5-(1-(3-(ethoxymethyl)-3-(4-fluoro-phenethyl)pyrrolidin-1-yl)cyclopropyl)-4-ethyl-2-methylpyridine]	< 10 mg/kg
CCOC[C@@]1(CCc2ccc(C)cc2)CCN(Cc2cccnc2)C1 [Compound 437, (S)-3-((3-(ethoxymethyl)-3-(4-methyl-phenethyl)pyrrolidin-1-yl)methyl)pyridine]	< 10 mg/kg
CCOCC1(CCc2ccccc2)CCN(N(C)c2ccc(C)nc2)C1 (stereo not shown) [Compound 438, N-(3-(ethoxymethyl)-3-phenethylpyrrolidin-1-yl)-N,6-dimethylpyridin-3-amine]	> 10 mg/kg
CCOC[C@@]1(CCc2ccc(F)cn2)CCN(Cc2cnc3ccccc3c2)C1 [Compound 439, (S)-3-((3-(ethoxymethyl)-3-(2-(5-fluoropyridin-2-yl)ethyl)pyrrolidin-1-yl)methyl)quinoline]	< 10 mg/kg
CCOC[C@@]1(CCc2ccccc2F)CCN(Cc2cccnc2)C1 [Compound 440]	< 10 mg/kg
CCOC[C@@]1(CCc2cccc(F)c2)CCN(Cc2cccnc2)C1 [Compound 441, (S)-3-((3-(ethoxymethyl)-3-(3-fluoro-phenethyl)pyrrolidin-1-yl)methyl)pyridine]	< 10 mg/kg
CCOC[C@@]1(CNc2ccccc2)CCN(Cc2ccc(C)nc2)C1.Cl [Compound 442, (R)-N-((3-(ethoxymethyl)-1-((6-methylpyridin-3-yl)methyl)pyrrolidin-3-yl)methyl)aniline HCl]	< 10 mg/kg
CCOC[C@@]1(CN(C)c2ccccc2)CCN(Cc2cccnc2)C1.Cl [Compound 443, (S)-N-((3-(ethoxymethyl)-l-(pyridin-3-ylmethyl)pyrrolidin-3-yl)methyl)-N-methylaniline HCl]	< 10 mg/kg
CCOC[C@@]1(COc2ccccc2)CCN(Cc2cccnc2)C1.Cl [Compound 444, (R)-3-((3-(ethoxymethyl)-3-(phenoxy-methyl)pyrrolidin-1-yl)methyl)pyridine HCl]	< 10 mg/kg
CCOC[C@@]1(CCc2nccn2C)CCN(C(C)(C)c2ccc(C)nc2)C1.Cl [Compound 445, (S)-5-(2-(3-(ethoxymethyl)-3-(2-(1-methyl-1H-imidazol-2-yl)ethyl)pyrrolidin-1-yl)propan-2-yl)-2-methylpyridine HCl]	< 10 mg/kg
CCOC[C@@]1(CCc2nccn2C)CCN(C(C)c2ccc(C)nc2)C1.Cl (stereo partly drawn) [Compound 446, 5-(1-((S)-3-(ethoxymethyl)-3-(2-(1-methyl-1H-imidazol-2-yl)ethyl)pyrrolidin-1-yl)ethyl)-2-methylpyridine HCl]	< 10 mg/kg
CC(c1cccnc1)N1CCC(CCc2cccs2)(c2ccccn2)CC1.Cl (stereo not shown) [Compound 447, 2-(1-(1-(pyridin-3-yl)ethyl)-4-(2-(thiophen-2-yl)ethyl)piperidin-4-yl)pyridine HCl]	< 10 mg/kg
Cl.Cn1cc(CN2CCC(CCc3cccs3)(c3ccccn3)CC2)cn1 [Compound 448]	< 10 mg/kg
CCOC[C@@]1(CCc2nc(C)cs2)CCN(C(C)(C)c2ccc(C)nc2)C1.Cl [Compound 449, (S)-2-(2-(3-(ethoxymethyl)-1-(2-(6-methylpyridin-3-yl)propan-2-yl)pyrrolidin-3-yl)ethyl)-4-methylthiazole HCl]	< 10 mg/kg
CCOC[C@@]1(CCc2nc(C)c(C)s2)CCN(C(C)(C)c2ccc(C)nc2)C1.Cl [Compound 450, (S)-2-(2-(3-(ethoxymethyl)-1-(2-(6-methylpyridin-3-yl)propan-2-yl)pyrrolidin-3-yl)ethyl)-4,5-dimethylthiazole HCl]	< 10 mg/kg

Structure (SMILES)	ED50
CCOCC1(CCc2cccs2)CCCN1Cc1cccnc1.Cl (stereo not shown) [Compound 451, 3-((2-(ethoxymethyl)-2-(2-(thiophen-2-yl)ethyl)pyrrolidin-1-yl)methyl)pyridine HCl]	< 10 mg/kg
CCOC[C@@]1(CCc2cccs2)CCN(Cc2ccc(OC)nc2)C1.Cl [Compound 452, (S)-5-((3-(ethoxymethyl)-3-(2-(thiophen-2-yl)ethyl)pyrrolidin-1-yl)methyl)-2-methoxypyridine HCl]	< 10 mg/kg
CCOC[C@@]1(CCc2cccs2)CCN(C(C)(C)c2ccc(OC)nc2)C1.Cl [Compound 453, (S)-5-(2-(3-(ethoxymethyl)-3-(2-(thiophen-2-yl)ethyl)pyrrolidin-1-yl)propan-2-yl)-2-methoxypyridine HCl]	< 10 mg/kg
CCOC[C@@]1(CCc2cccs2)CCN(Cc2ccc(=O)[nH]c2)C1.Cl [Compound 454, (S)-5-((3-(ethoxymethyl)-3-(2-(thiophen-2-yl)ethyl)pyrrolidin-1-yl)methyl)pyridin-2(1H)-one HCl]	> 10 mg/kg
CCOCC1(CCC2CCCS2)CCCN1Cc1cccnc1.Cl (stereo not shown) [Compound 455, 3-((2-(ethoxymethyl)-2-(2-(tetrahydrothiophen-2-yl)ethyl)pyrrolidin-1-yl)methyl)pyridine HCl]	> 10 mg/kg
CCOC[C@@]1(CCc2nc3ncncc3[nH]2)CCN(C(C)(C)c2ccc(C)nc2)C1 [Compound 456, (S)-8-(2-(3-(ethoxymethyl)-1-(2-(6-methylpyridin-3-yl)propan-2-yl)pyrrolidin-3-yl)ethyl)-7H-purine citrate]	< 10 mg/kg
CCOC[C@@]1(CCC2CC2)CCN(C(C)(C)c2ccc(C)nc2)C1 [Compound 457, (S)-5-(2-(3-(2-cyclopropylethyl)-3-(ethoxy-methyl)pyrrolidin-1-yl)propan-2-yl)-2-methylpyridine citrate]	< 10 mg/kg
CCOC[C@@]1(COCc2ccccc2)CCN(C(C)(C)c2ccc(C)nc2)C1.Cl [Compound 458, (R)-5-(2-(3-((benzyloxy)methyl)-3-(ethoxy-methyl)pyrrolidin-1-yl)propan-2-yl)-2-methylpyridine HCl]	< 10 mg/kg
CCCCC[C@]1(COCC)CCN(C(C)(C)c2ccc(C)nc2)C1.Cl [Compound 459, (S)-5-(2-(3-(ethoxymethyl)-3-pentylpyrrolidin-1-yl)propan-2-yl)-2-methylpyridine HCl]	< 10 mg/kg
CCOCC1CCN(C(C)(C)c2ccc(C)nc2)C1.Cl (stereo not shown) [Compound 460, 5-(2-(3-(ethoxy-methyl)pyrrolidin-1-yl)propan-2-yl)-2-methylpyridine HCl]	< 10 mg/kg
CCOC[C@@]1(CCc2nc3ncncc3n2Cc2ccc(OC)cc2)CCN(C(C)(C)c2ccc(C)nc2)C1 [Compound 461, (S)-8-(2-(3-(ethoxymethyl)-1-(2-(6-methylpyridin-3-yl)propan-2-yl)pyrrolidin-3-yl)ethyl)-7-(4-methoxybenzyl)-7H-purine citrate]	< 10 mg/kg
CCOC[C@@]1(CCc2sccc2C)CCN(Cc2cccnc2)C1 [Compound 462, (S)-3-((3-(ethoxymethyl)-3-(2-(3-methylthiophen-2-yl)ethyl)pyrrolidin-1-yl)methyl)pyridine]	< 10 mg/kg
CCOC[C@@]1(CCc2ccc(C)s2)CCN(Cc2cccnc2)C1 [Compound 463, (S)-3-((3-(ethoxymethyl)-3-(2-(5-methylthiophen-2-yl)ethyl)pyrrolidin-1-yl)methyl)pyridine]	< 10 mg/kg
CCOC[C@@]1(CCc2ccsc2C)CCN(Cc2cccnc2)C1 [Compound 464, (S)-3-((3-(ethoxymethyl)-3-(2-(2-methylthiophen-3-yl)ethyl)pyrrolidin-1-yl)methyl)pyridine]	< 10 mg/kg
CCOC[C@@]1(CCC2CC2)CCN(C2(c3ccc(C)nc3)CC2)C1 [Compound 466, (S)-5-(1-(3-(2-cyclopropylethyl)-3-(ethoxy-methyl)pyrrolidin-1-yl)cyclopropyl)-2-methylpyridine]	< 10 mg/kg
Cc1ccc(CN2[C@@H](C)CC(CCc3ccc(F)cn3)(c3ccccn3)C[C@@H]2C)cn1 (stereo partly drawn) [Compound 467, 2-(2-((2S,6S)-2,6-dimethyl-1-((6-methylpyridin-3-yl)methyl)-4-(pyridin-2-yl)piperidin-4-yl)ethyl)-5-fluoropyridine]	> 10 mg/kg
Cc1ccc(C(C)(C)N2CC[C@](CCc3cccs3)([C@@H]3CCC(C)(C)O3)C2)cn1 [Compound 468, 5-(2-((S)-3-((S)-5,5-dimethyltetrahydro-furan-2-yl)-3-(2-(thiophen-2-yl)ethyl)pyrrolidin-1-yl)propan-2-yl)-2-methylpyridine]	< 10 mg/kg
